Experimental data from patent US9994536B2, “Compounds and methods of treating neurological disorders” (TORREY PINES INSTITUTE FOR MOLECULAR STUDIES, priority 2014, dated 2018).

Key:
[1] = tested on: sAPPα released from 7WD10 cells (CHO cells stably expressing APP751); experiment: AlphaLISA sAPPα release assay (pilot HTS); type: cell-based; details: 5 μM, 7WD10 cells, 24 h
Method: (1). The pilot screen was performed using five 384 well plates. […] FDA approved oncology set was screened at 10 μM final assay concentration, while thiazole derivatives were screened at 5 μM. Seven hits from thiazole derivatives were identified using Ave+3SD rule (45) as a nominal cutoff for hit determination (FIG. 1.1 (bottom)). The hits represented a novel piperazine thiazole chemotype (FIG. 1.2).
Pilot screen of AlphaLISA sAPPα release assay. 8 μL of assay media (DMEM supplemented with 10% FBS and 1× Penicillin/Streptomycin) containing 20,000 cells were added to all wells of the assay plate, except column 1 where only media was added. Plates were incubated for 4 h at 37° C., 5% CO2, 95% RH after which 80 nL of test compounds in DMSO or DMSO alone were added to respective wells using a pin tool device (VP Scientific, San Diego). After 24 h of incubation at 37° C., 5% CO2, 95% RH, sAPPα AlphaLISA beads were added in 10 μL of buffer, equilibrated for 1 h, and AlphaLISA signal was measured using a Biotek H4 Synergy microplate reader (Biotek Inc). Three parameters were calculated on a per-plate basis: (a) the signal-to-background ratio (S/B); (b) the coefficient for variation [CV; CV=(standard deviation/mean)×100)] for all compound test wells; and (c) the Z′-factor [31]. Nominally active compounds from the pilot screen were determined using mean plus 3 times the standard deviation (Mean+3SD) was used as the cut-off.
In the absence of known pharmacological agents capable of inducing an increase of sAPPα release, we tested a small molecule (FIG. 2.4A insert, compound 1 in [2]) shown to decrease Aβ release. It was shown that decrease of Aβ release could be accompanied by the increase of soluble APPα, which has a neuroprotective effect. Compound 1 was tested using 20,000 cells/well in the range of 1.2-100 μM using 3-fold serial dilutions and 24 h incubation as an assay endpoint. Increase of sAPPα release was observed only in wells where 100 μM of compound 1 was added either with or without FBS (FIG. 2.4A). Viability of cells was also tested in the presence of 1.2-100 μM of compound 1 to ascertain that the increase of sAPPα release is not due to excessive cell death. Consistent with the above described results, cells were less viable in the absence of FBS. In the presence of 1.2-33 μM of compound 1, cells were approximately 10% less viable than untreated control either with or without FBS (FIG. 2.4B).
To evaluate the ability of the assay to identify compounds that increase the release of sAPPα a pilot screen was conducted using FDA approved oncology set (n=101) and TPIMS heterocycles library (n=700). The pilot screen was performed using five 384 well plates. […]

[2] = tested on: sAPPα; experiment: sAPPα ELISA, NT2 cells stably expressing APP751; type: cell-based, human; details: 24 h
Method: (§1) (5). To confirm the effect of THPI-244 on sAPPα levels in a neuronal cell line and by a tertiary assay, we exposed human Neuron-committed Teratocarcinoma cell line (NT2) stably expressing human APP751 to different concentrations of THPI-244 for 24 h and compared with that of Bryostatin, a classical activator of PKC known to stimulate sAPPα release. […] Levels of sAPPα were measured by ELISA using commercially available kit (cat #27734, IBL-America, Minneapolis, Minn., USA). […] Similar biphasic effect of Bryostatin was confirmed for Aβ42 also, measured again in NT2 stable cells by ELISA (cat #KHB3441, Life Technologies, Grand Island, N.Y., USA). Consistent with sAPPα, THPI-244 decreased Aβ42 levels dose-dependently starting from 50 nM (28%, p<0.05) to 2000 nM (64%, p<0.001) (n=4 independent experiments) (FIG. 1.7). Thus THPI-244 increased non-amyloidogenic processing of APP in NT2 cells.

[3] = tested on: Aβ42; experiment: Aβ42 ELISA, NT2 stable cells; type: cell-based, human
Method: as §1

[4] = tested on: sAPPα; experiment: sAPPα ELISA, fibroblasts derived from AD patients; type: cell-based, human; details: 24 h
Method: (1). […] Therefore, we first used fibroblasts derived from AD patients (AG06263C, Coriell Cell repository, supported by NINDS/NIH) and exposed to THPI-244 for 24 h and measured sAPPα release by ELISA as done above for NT2 cells. […] We also confirmed dose-dependent effect of THPI-244 on sAPPα levels in human primary neurons transiently transfected with APP751 with Swedish mutation which is trafficked differently from WT APP and releases more sAPPα. Human neurons were grown on specially coated glass coverslips (cat #GG-18-PDL, NeuVitro, Germany). We could reproducibly achieve nearly 30% transfection efficiency using a nanoparticle based transfection reagent called Neuromag (cat #NM150299, OZ Biosciences, France).

[5] = tested on: Wild-type (WT) C57BL/6 mice; experiment: Lethal dose (LD50) study in mice; type: in vivo, mouse
Description: Wild-type (WT) C57BL/6 mice aged about 6 months were used in the study. The compound THPI-244 was initially dissolved in 100% DMSO and then diluted to final 10% DMSO with phosphate buffered saline (PBS). […] Among these 6 mice, 3 mice received repeated injections (i.p) of compound THPI-244 for 5 days.

[6] = target: T1, TrkA (Mus musculus, UniProt Q3UFB7); experiment: Mouse brain lysate immunoblot, TrkA; type: in vivo; details: 100 mg/kg i.p. for 5 days
T1 construct: from tissue; host or cells: mouse brain lysate
Method: FIGS. 9.2A and B illustrate that THPI-244 increases TrkA and sAPPα in the mouse brain. FIG. 9.2A illustrates that THPI-244 was administered to mice by i.p. injections at 100 mg/kg body weight for 5 days and the brain lysates were subjected to immunoblots. Specific antibodies were used to detect TrkA and sAPPα. […] Data are mean±SEM, n=3*, p<0.05, ***, p<0.001.

[7] = target: TrkA (Homo sapiens, UniProt P04629); experiment: Table of THPI-244 analogs: TrkA increase
TrkA (Homo sapiens, UniProt P04629), sequence (P04629 33-796, species assumed): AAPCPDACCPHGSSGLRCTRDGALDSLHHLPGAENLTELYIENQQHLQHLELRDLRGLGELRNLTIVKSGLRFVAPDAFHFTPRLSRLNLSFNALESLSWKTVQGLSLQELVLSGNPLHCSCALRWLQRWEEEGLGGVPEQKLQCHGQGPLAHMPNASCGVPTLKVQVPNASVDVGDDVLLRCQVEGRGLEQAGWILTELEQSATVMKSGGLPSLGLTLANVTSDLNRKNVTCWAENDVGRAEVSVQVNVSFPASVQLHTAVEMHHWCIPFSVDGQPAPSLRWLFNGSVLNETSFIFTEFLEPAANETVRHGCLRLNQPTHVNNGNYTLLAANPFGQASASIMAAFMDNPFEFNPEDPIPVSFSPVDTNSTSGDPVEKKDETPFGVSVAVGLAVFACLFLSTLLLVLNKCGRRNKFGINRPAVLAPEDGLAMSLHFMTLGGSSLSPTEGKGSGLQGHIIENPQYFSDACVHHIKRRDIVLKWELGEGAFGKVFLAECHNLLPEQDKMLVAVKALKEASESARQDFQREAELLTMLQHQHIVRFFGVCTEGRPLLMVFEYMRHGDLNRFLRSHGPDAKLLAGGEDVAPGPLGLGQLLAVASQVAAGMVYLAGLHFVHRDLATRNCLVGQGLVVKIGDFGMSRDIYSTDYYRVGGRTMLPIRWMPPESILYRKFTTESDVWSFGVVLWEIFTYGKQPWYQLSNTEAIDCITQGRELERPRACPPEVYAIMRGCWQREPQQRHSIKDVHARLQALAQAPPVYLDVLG

T1 sequence (Q3UFB7 34-799): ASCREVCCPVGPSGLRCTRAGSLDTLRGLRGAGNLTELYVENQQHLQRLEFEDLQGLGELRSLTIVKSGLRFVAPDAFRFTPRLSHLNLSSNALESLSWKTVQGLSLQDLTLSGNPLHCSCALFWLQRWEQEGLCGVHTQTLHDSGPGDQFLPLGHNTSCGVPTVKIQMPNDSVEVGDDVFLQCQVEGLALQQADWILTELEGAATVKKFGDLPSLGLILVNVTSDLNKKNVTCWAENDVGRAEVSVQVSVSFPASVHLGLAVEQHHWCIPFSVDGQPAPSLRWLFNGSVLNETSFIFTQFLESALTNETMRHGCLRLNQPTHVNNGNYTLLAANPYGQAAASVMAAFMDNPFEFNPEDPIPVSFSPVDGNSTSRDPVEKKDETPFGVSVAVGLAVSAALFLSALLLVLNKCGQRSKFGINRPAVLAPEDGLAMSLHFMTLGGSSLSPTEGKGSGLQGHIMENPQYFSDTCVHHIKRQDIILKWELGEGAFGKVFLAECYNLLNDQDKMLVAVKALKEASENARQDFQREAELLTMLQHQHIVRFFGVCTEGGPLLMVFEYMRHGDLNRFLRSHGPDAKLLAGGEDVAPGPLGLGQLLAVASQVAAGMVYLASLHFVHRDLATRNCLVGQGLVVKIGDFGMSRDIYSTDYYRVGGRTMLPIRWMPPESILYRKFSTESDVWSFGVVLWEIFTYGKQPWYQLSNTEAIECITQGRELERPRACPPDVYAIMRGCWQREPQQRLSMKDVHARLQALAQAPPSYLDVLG

## O=C(Cc1ccccc1)N[C@H](CNc1nc(CN2CCN(C(=O)Cc3ccccc3)CC2)cs1)c1ccccc1 [THPI-244]
[1]
  increase of Alpha signal (sAPPα release): ~2 fold
[2]
  lowest concentration with significant increase of sAPPα: 50 nM
[3]
  lowest concentration with significant decrease of Aβ42: 50 nM
[4]
  lowest concentration with significant increase of sAPPα: 50 nM
[5]; 100 mg/kg i.p., 6 mice, monitored for 5 days
  lethality: did not result in the death of any of the 6 mice
[5]; 200 mg/kg, single mouse
  lethality: survived without visible ill effects
[5]; repeated i.p. injections for 5 days, 3 mice
  lethality: None of the mice showed any lethal effect
[6]
  increase of TrkA in brain: 78%
[7]
  % TrkA ⬆: 99%
